Data taken from patent publication US20240376109A1, “PYRAZOLO[1,5-A]PYRIMIDINE COMPOUND FOR THE TREATMENT OF DERMAL DISORDERS” (OTSUKA PHARMACEUTICAL CO., LTD., priority 2021, published 2024).
Read-outs that look alike come from different tables or passages of the source.

Legend:
PAR2 = target: T1, PAR2 (Homo sapiens, UniProt P55085); assay: Intracellular calcium concentration measurement (SLIGKV-NH2-induced calcium change, Fluo-8, FDSS/μCELL); assay type: cell-based
T1 construct: HEK293 cell lines derived from human embryonic kidney cultured in a MEM culture medium; endogenous in cells; host or cells: HEK293
T1 sequence (P55085 26-397): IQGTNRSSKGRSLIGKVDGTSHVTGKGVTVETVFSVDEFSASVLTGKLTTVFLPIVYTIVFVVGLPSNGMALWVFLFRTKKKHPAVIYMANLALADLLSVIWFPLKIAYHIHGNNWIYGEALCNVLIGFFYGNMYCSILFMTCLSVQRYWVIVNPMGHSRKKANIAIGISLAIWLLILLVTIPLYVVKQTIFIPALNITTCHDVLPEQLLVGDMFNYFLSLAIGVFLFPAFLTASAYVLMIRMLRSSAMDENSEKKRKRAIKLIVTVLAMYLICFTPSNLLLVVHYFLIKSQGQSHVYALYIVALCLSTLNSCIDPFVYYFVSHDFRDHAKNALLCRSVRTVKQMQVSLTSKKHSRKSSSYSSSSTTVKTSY

ICR mice = assay: Scratching behavior test with PAR2 agonist peptide (SLIGRL-NH2) administration; assay type: in vivo, mouse; conditions: 40 μL of 6% test compound solution applied to back, SLIGRL-NH2 intradermal, scratching counted 10 to 40 minutes after
Experimental: Test Example 2: Scratching Behavior Test with PAR2 Agonist Peptide Administration
Magnets for measuring scratching behavior(Neuroscience, Inc.) were implanted in both legs of 6- to 7-week-old female ICR mice under 3.5% isoflurane inhalation anesthesia.
Under isoflurane inhalation anesthesia, the upper back was shaved about 2×3 cm with a shaver and 40 μL of a 6% of test compound solution was applied with a micropipette. The animals were then kept in a dedicated cage for 1 hour. […] Then, under isoflurane inhalation anesthesia, 10 μL of a 25 mg/mL solution of PAR2 agonist peptide (SLIGRL-NH2) in distilled water was administered intradermally by using a needle attached to a Hamilton syringe. The animals were returned to the cage and the scratching frequency was measured by the device for 30 minutes from 10 to 40 minutes after the administration.
The inhibitory effect of the test compounds on scratching behavior was calculated as a percentage of the number of scratches in the solvent-applied and PAR2 agonist peptide-treated group, and is shown in Table 4 as a percentage.

NC/Nga mice = assay: Scratching behavior test using atopic dermatitis model (SDS and mite antigen ointment sensitization); conditions: 60 μL applied, 7 hours after application
NZW rabbits = assay: Rabbit skin cumulative irritation test (erythema and edema scores, 7 days); assay type: in vivo; parameters: key: sum of erythema (5-point scale) + edema (5-point scale) scores; conditions: 50 μL of 3% solution in 70% ethanol daily for 7 days; for Irritant score Day 7: average total score of erythema and edema on Day 7; for Irritant score Maximum: maximum (total) score of erythema and edema during the test period
Experimental: Test Example 4: Rabbit Skin Cumulative Irritation Test
18-20 week-old female NZW rabbits shaved on the back with a shaver were fitted with a collar (Natsume Seisakusho Co., Ltd.). A 2.5 cm×2.5 cm frame was placed on the back of the rabbits, and 50 μL of a 3% solution of each compound in 70% ethanol was applied to the place in 2 or 3 rabbits. The next day (approximately 24 hours later), the compound applied on the previous day was wiped off with a cotton pad soaked in lukewarm water, and approximately 30 minutes later, erythema (5-point scale) and edema (5-point scale) were evaluated according to the score criteria shown below.
After the score evaluation, the compound was applied again. This process was conducted for 7 days, and irritancy was evaluated by the average of the total score of erythema and edema on the last day of evaluation (Day 7) and the maximum (total) scores during the test period.
The score evaluation criteria were as follows.

[1] = HEK293 cells, SLIGKV-NH2 10 μM-induced intracellular calcium change, read-out: IC50
[2] = assessed concentration 6%, solvent 100% ethanol
[3] = assessed concentration 6%, solvent 70% ethanol
[4] = assessed concentration 1%, solvent 100% ethanol

Compound	IC50 (PAR2; [1])	scratching-behavior inhibition rate (ICR mice; solvent 100% ethanol)	Scratching behavior inhibition rate (NC/Nga mice; [2])	other results
CCCc1cc(C23CC4CC(CC(C4)C2)C3)nc2cc(C(=O)N3CCCCCC3)nn12 [Example 1]	173 nM	35%	76%	–
O=C(c1cc2nc(CC3CCCCC3)cc(C(F)(F)F)n2n1)N1CCCCCC1 [Example 3, azepan-1-yl(5-(cyclohexylmethyl)-7-(trifluoromethyl)pyrazolo[1,5-a]pyrimidin-2-yl)methanone]	23 nM	–	–	scratching-behavior inhibition rate (ICR mice; solvent 70% ethanol): 33%; Irritant score Day 7 (NZW rabbits): 1.5; Irritant score Maximum (NZW rabbits): 1.6; Scratching behavior inhibition rate (NC/Nga mice; [3]): 71%
O=C(c1cc2nc(CC3CCCC3)cc(C(F)(F)F)n2n1)N1CCCCCC1 [Example 4, azepan-1-yl(5-(cyclopentylmethyl)-7-(trifluoromethyl)pyrazolo[1,5-a]pyrimidin-2-yl)methanone]	109 nM	–	–	Scratching behavior inhibition rate (NC/Nga mice; [3]): 56%
O=C(c1cc2nc(CCC3CCCC3)cc(C(F)(F)F)n2n1)N1CCCCCC1 [Example 6, azepan-1-yl(5-(2-cyclopentylethyl)-7-(trifluoromethyl)pyrazolo[1,5-a]pyrimidin-2-yl)methanone]	149 nM	–	60%	–
CC(C)c1cc(CC2CCCCC2)nc2cc(C(=O)N3CCCCCC3)nn12 [Example 7, azepan-1-yl(5-(cyclohexylmethyl)-7-isopropylpyrazolo[1,5-a]pyrimidin-2-yl)methanone]	–	32%	70%	IC50 (PAR2; IC50 (nM)): 113 nM; Irritant score Day 7 (NZW rabbits): 0.3; Irritant score Maximum (NZW rabbits): 1.3
O=C(c1cc2nc(CC3CCCCC3)cc(C3CCCCC3)n2n1)N1CCCCCC1 [Example 8, azepan-1-yl(7-cyclohexyl-5-(cyclohexylmethyl)pyrazolo[1,5-a]pyrimidin-2-yl)methanone]	95 nM	30%	50%	–
CCCCc1cc(CC2CCCCC2)nc2cc(C(=O)N3CCCCCC3)nn12 [Example 10]	178 nM	41%	–	Scratching behavior inhibition rate (NC/Nga mice; [4]): 48%
CCc1cc(CC2CCCC2)nc2cc(C(=O)N3CCCCC3(C)C)nn12 [Example 11]	252 nM	–	80%	–
CC(C)c1cc(CC2CCCC2)nc2cc(C(=O)N3CCCCC3(C)C)nn12 [Example 12]	76 nM	51%	102%	Irritant score Day 7 (NZW rabbits): 0.0; Irritant score Maximum (NZW rabbits): 0.0
CC(C)c1cc(CCC2CCCC2)nc2cc(C(=O)N3CCCCCC3)nn12 [Example 14]	186 nM	–	95%	Irritant score Day 7 (NZW rabbits): 2.0; Irritant score Maximum (NZW rabbits): 2.0
CC(C)c1cc(CC2CCCC2)nc2cc(C(=O)N3CCCCCC3)nn12 [Example 15, azepan-1-yl-[5-(cyclopentylmethyl)-7-propan-2-ylpyrazolo[1,5-a]pyrimidin-2-yl]methanone]	150 nM	44%	–	Irritant score Day 7 (NZW rabbits): 0.0; Irritant score Maximum (NZW rabbits): 0.7; Scratching behavior inhibition rate (NC/Nga mice; assessed concentration 3%, solvent 100% ethanol): 52%
CC(C)c1cc(CCC2CCCCC2)nc2cc(C(=O)N3CCCCCC3)nn12 [Example 17]	232 nM	–	60%	Irritant score Day 7 (NZW rabbits): 0.7; Irritant score Maximum (NZW rabbits): 1.3
CCc1cc(CC2CCCCC2)nc2cc(C(=O)N3CCCCCC3)nn12 [Example 19]	131 nM	42%	–	Scratching behavior inhibition rate (NC/Nga mice; [4]): 70%
CC1(C)CNCCN1C(=O)c1cc2nc(C34CC5CC(CC(C5)C3)C4)cc(C(F)(F)F)n2n1 [Example 53, [5-(1-adamantyl)-7-(trifluoromethyl)pyrazolo[1,5-a]pyrimidin-2-yl]-(2,2-dimethylpiperazin-1-yl)methanone]	404 nM	–	–	scratching-behavior inhibition rate (ICR mice; solvent Acetone/methanol (1:1)): 44%
O=C(c1cc2nc(C3CCCCC3)cc(C(F)(F)F)n2n1)N1CCCCCC1 [Example 54]	355 nM	–	–	scratching-behavior inhibition rate (ICR mice; solvent Acetone/methanol (1:1)): 25%
O=C(c1cc2nc(C3CCCC3)cc(C(F)(F)F)n2n1)N1CCCCCC1 [Example 55]	569 nM	–	–	scratching-behavior inhibition rate (ICR mice; solvent Acetone/methanol (1:1)): 47%; Scratching behavior inhibition rate (NC/Nga mice; assessed concentration 6%, solvent Acetone/methanol (1:1)): 54%
CC(C)c1cc(C23CC4CC(CC(C4)C2)C3)nc2cc(C(=O)N3CCNCC3(C)C)nn12 [Example 59]	357 nM	–	–	scratching-behavior inhibition rate (ICR mice; solvent Acetone/methanol (1:1)): 28%
CC1(C)CCCCN1C(=O)c1cc2nc(C3CCCCC3)cc(C(F)(F)F)n2n1 [Example 65]	107 nM	27%	–	–
CCC(CC)c1cc(CC2CCCC2)nc2cc(C(=O)N3CCC(C)(C)C(=O)C3(C)C)nn12 [Example 70]	51 nM	33%	–	–
CC(C)c1cc(CC2CCCC2)nc2cc(C(=O)N3CCC(C)(C)C(=O)C3(C)C)nn12 [Example 71]	115 nM	27%	–	–
O=C(c1cc2nc(C34CC5CC(CC(C5)C3)C4)cc(C(F)(F)F)n2n1)N1CCCCCC1 [Example 94]	141 nM	–	–	scratching-behavior inhibition rate (ICR mice; solvent Acetone/methanol (1:1)): 44%
CC1(C)CCN(C(=O)c2cc3nc(CC4CCCC4)cc(C(F)(F)F)n3n2)C(C)(C)C1=O [Example 105]	83 nM	27%	–	–
CC1(C)CNCCCN1C(=O)c1cc2nc(C34CC5CC(CC(C5)C3)C4)cc(C(F)(F)F)n2n1 [Example 110]	228 nM	–	–	scratching-behavior inhibition rate (ICR mice; solvent Acetone/methanol (1:1)): 25%
CC(C)c1cc(CC2CCCC2)nc2cc(C(=O)N3CCCC(O)C3(C)C)nn12 (stereo not drawn) [Example 117]	169 nM	34%	–	–
